Data on 1 compound can be found in publication PMC8378823, “X-ray free-electron laser studies reveal correlated motion during isopenicillin N synthase catalysis” (Science Advances, 2021).

The target in this experiment is T1, isopenicillin N synthase (IPNS) (Aspergillus nidulans, UniProt P05326).
T1 construct: gene ipnA; recombinant wild type (pJB703) from E. coli NM554; S55C form from pCOLD I, N-terminal His6 tag cut with 3C protease, 37,768 Da
T1 sequence (P05326 1-331): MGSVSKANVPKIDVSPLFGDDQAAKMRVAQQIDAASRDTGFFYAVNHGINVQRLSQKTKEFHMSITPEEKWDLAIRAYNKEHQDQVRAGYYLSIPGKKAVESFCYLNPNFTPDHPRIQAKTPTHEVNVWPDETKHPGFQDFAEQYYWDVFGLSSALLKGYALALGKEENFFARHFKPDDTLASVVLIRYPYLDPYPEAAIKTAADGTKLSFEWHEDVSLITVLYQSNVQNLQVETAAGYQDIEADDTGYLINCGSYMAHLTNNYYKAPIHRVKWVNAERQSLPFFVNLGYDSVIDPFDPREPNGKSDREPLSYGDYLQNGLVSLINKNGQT
The experiment in a line: SFX and cryo synchrotron crystal structure. The following applies: Fe complex; formed in crystallo from ACV by about 30 min O2 exposure; SFX 1.60 Å at room temperature. Format: binding.

In the case of `CC1(C)S[C@@H]2[C@H](NC(=O)CCC[C@H](N)C(=O)O)C(=O)N2[C@H]1C(=O)O` [isopenicillin N], the “SFX and cryo synchrotron crystal structure” value is on record as “Composite SFX 2mFo-DFc omit map for IPNS:Fe:IPN obtained by ~30-min O2 exposure”.
